# Assays:
# [1] = Solubility of crosslinker in common solvents and water; type: physicochemical; conditions: chloroform, methylene chloride, acetone, ethyl acetate, isopropanol, etc.
# Description: The peaks at d 7.78 ppm (m, 12H), 7.46 ppm (m, 9H), 6.98 ppm (m, 6H) were the typical signals from 4-substituted benzophenone. The peak at d 4.35 ppm (m, 6H) was assigned to the protons of methylene connected to phenoxy group. The peak at d 4.13 ppm (m, 9H) was a combination of 6 protons of 3 methylene groups connected to nitrogen atom and 3 protons from 3 methine groups. The peak at d 3.00 ppm (s, 3H) corresponded to hydroxyl groups.
# The peaks at 7.49˜7.79 ppm (m, 18H) were the typical signals from 4-substituted benzophenone. The peak at 4.66 ppm (s, 4H) was assigned to the protons of methylene connected to benzophenone group. The peak at 3.70 ppm (m, 16H) corresponded to ethylene groups.
# The peaks at 7.26˜7.79 ppm (m, 18H) were the typical signals from 4-substituted benzophenone. The peak at 4.64 ppm (s, 4H) was assigned to the protons of methylene connected to benzophenone group. The peak at 3.66 ppm (m, 24H) corresponded to ethylene groups.
# [2] = Static contact angle with water on coated PVC coverslips (goniometer); type: physicochemical
# Description: A coating solution was made up from the crude glycol linker product isolated in Example 3 (0.5 mg/ml glycol in isopropanol with 50 mg/ml polyvinylpyrrolidone (Kollidon K30, BASF, N.J.)). 100 μl of the coating solution was applied to PVC coverslips (Fisher Scientific, Pittsburgh, Pa.) and allowed to dry overnight. All pieces were illuminated for a set time in a uv crosslinker (UVP CL-1000, Upland, Calif., 254 nm light, 120,000 μJ/cm^2) from 0 to 10 minutes. Pieces were then rinsed for 30 minutes in deionized water with gentle agitation. The static contact angle with water was taken on a goniometer (MicroVu 400, Santa Ana, Calif.), three 3 μl drops of water were measured, three times apiece. Contact angles are shown below.
# A coating solution of purified triazine crosslinker isolated in Example 1 was made by adding 44 mg of crosslinker to 1 ml of acetone, diluted with 19 ml of isopropanol, then adding 1000 mg of poly(vinylpyrrolidone) (PVP) (Kollidon K30, BASF, N.J.). The resulting solution was thoroughly mixed on an orbital shaker for four hours. 18 samples were prepared by adding 100, 200, or 500 μl of coating solution onto PVC Coverslips (Fisher Scientific, Pittsburgh, Pa.) (n=6 for each condition), then air drying. The sample pieces were illuminated for five minutes in a uv chamber (UVP CL-1000, Upland, Calif., 254 nm light, 120,000 μJ/cm^2), then rinsed for four hours in deionized water with gentle agitation. 4 pieces of each variable were then stained with Congo red dye to determine the presence of PVP. For each coating condition, two of the four stained pieces were then rubbed with a wet glove to determine durability of the coating to simple rubbing. The remaining two unstained sample pieces for each coating condition were then assessed for static contact angle by threefold measurement of three 3 μl drops of water on a goniometer (MicroVu 400, Santa Ana, Calif.).
compound,measurement,setting,value
O=C(c1ccccc1)c1ccc(OCC(O)Cn2c(=O)n(CC(O)COc3ccc(C(=O)c4ccccc4)cc3)c(=O)n(CC(O)COc3ccc(C(=O)c4ccccc4)cc3)c2=O)cc1 (stereo not shown) [Example 1],solubility in most common solvents,[1],soluble in most common solvents
same,Contact angle (rinse only),"[2]; triazine crosslinker/PVP K30, Coating 100 ml",35.3 ± 3.4
same,Contact angle (rinse only),"[2]; triazine crosslinker/PVP K30, Coating 200 ml",38.7 ± 2.6
same,Contact angle (rinse only),"[2]; triazine crosslinker/PVP K30, Coating 500 ml",29.2 ± 2.2

# Reference: US8487137B2, “Photochemical crosslinkers for polymer coatings and substrate tie-layer” (Innovative Surface Technologies, LLC, priority 2005, dated 2013)
